Eight compounds from PubChem BioAssay (NCI) can be followed below.

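These data come from cells grown in 96-well plates and exposed to compound for 48 hours at five concentrations. Here, GI50 denotes the concentration required for 50% inhibition of growth. TGI is the concentration that stops growth completely.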

Test systems include OVCAR-4 ovarian; SNB-75 CNS; SR leukemia; HL-60(TB) leukemia; NCI-H522 lung; UO-31 renal; OVCAR-5 ovarian; OVCAR-3 ovarian; HCT-116 colon; CCRF-CEM leukemia.
Common to all, as to test: inhibition of tumour cell growth, NCI panel, 48 h

With `Cc1ccc2sc3c(NCCCNCCO)nc4ccccc4c3c(=O)c2c1`, the GI50 is 1.64 µM with OVCAR-4 ovarian; 1.2 µM in the experiment on SNB-75 CNS; 1.55 µM with SR leukemia; 1.86 µM in the experiment on HL-60(TB) leukemia; 1.66 µM with NCI-H522 lung; 1.28 µM in the experiment on UO-31 renal. Moreover, the GI50 was 1.62 µM in the experiment with OVCAR-5 ovarian, 1.75 µM in the experiment on OVCAR-3 ovarian, 1.41 µM in the experiment on HCT-116 colon and 1.35 µM with CCRF-CEM leukemia. The TGI in the experiment on OVCAR-4 ovarian was 3.12 µM; in the experiment with SNB-75 CNS it was 2.5 µM; with SR leukemia, 4.07 µM; in the experiment on HL-60(TB) leukemia, 3.58 µM; in the experiment on NCI-H522 lung, 3.43 µM; with UO-31 renal, 2.58 µM. In addition, the TGI in the experiment on OVCAR-5 ovarian was found to be 3.16 µM; with OVCAR-3 ovarian it was 3.26 µM; in the experiment on HCT-116 colon, 2.73 µM; in the experiment with CCRF-CEM leukemia, 2.97 µM.
`Clc1ccc(CO/N=C(\Cn2ccnc2)c2ccc(Cl)cc2Cl)c(Cl)c1`: the GI50 was 1.36 µM in the experiment on OVCAR-4 ovarian; 1.65 µM with SNB-75 CNS; 1.65 µM with SR leukemia; 2.08 µM in the experiment with HL-60(TB) leukemia; 1.52 µM in the experiment with NCI-H522 lung; 1.34 µM in the experiment on UO-31 renal. For the same compound, the GI50 was 1.67 µM in the experiment on OVCAR-5 ovarian, 1.66 µM in the experiment with OVCAR-3 ovarian, 1.5 µM in the experiment with HCT-116 colon and 1.87 µM in the experiment with CCRF-CEM leukemia. Further, the TGI in the experiment with OVCAR-4 ovarian is 2.67 µM; with SNB-75 CNS it was 3.22 µM; in the experiment with SR leukemia, 4.29 µM; in the experiment on HL-60(TB) leukemia, 4.62 µM; in the experiment with NCI-H522 lung it was 3.28 µM; with UO-31 renal it was 2.79 µM. Besides, the TGI in the experiment on OVCAR-5 ovarian turned out to be 3.26 µM; in the experiment on OVCAR-3 ovarian, 3.12 µM; in the experiment with HCT-116 colon it was 3.19 µM; with CCRF-CEM leukemia it was 4.62 µM.
Consider `Cn1cc(C2=C(c3c4n(c5ccccc35)CCC(CN)CC4)C(=O)NC2=O)c2ccccc21` (centres undefined), for which the GI50 with OVCAR-4 ovarian was 1.96 µM; with SNB-75 CNS it was 1.09 µM; in the experiment with SR leukemia, 5.14 µM; with HL-60(TB) leukemia, 5.22 µM; in the experiment on NCI-H522 lung, 4.08 µM; with UO-31 renal, 4.07 µM. Also, the GI50 was 3.51 µM in the experiment on OVCAR-5 ovarian, 4.31 µM in the experiment on OVCAR-3 ovarian, 3.51 µM in the experiment on HCT-116 colon and 5.19 µM in the experiment with CCRF-CEM leukemia. In addition, the TGI amounted to 7.51 µM in the experiment with OVCAR-4 ovarian; 4.9 µM in the experiment with SNB-75 CNS; 16.2 µM with SR leukemia; 11.5 µM in the experiment with HL-60(TB) leukemia; 8.11 µM in the experiment on NCI-H522 lung; 7.91 µM in the experiment with UO-31 renal. In addition, the TGI in the experiment on OVCAR-5 ovarian was found to be 9.14 µM; in the experiment with OVCAR-3 ovarian, 8.75 µM; in the experiment with HCT-116 colon, 7.26 µM; with CCRF-CEM leukemia it was 15.6 µM.
On to `Cc1cccc(N=C2c3cc([N+](=O)[O-])ccc3-c3c2cc([N+](=O)[O-])cc3[N+](=O)[O-])c1`, for which the GI50 with OVCAR-4 ovarian was 6.98 µM; with SNB-75 CNS, 4.59 µM; with SR leukemia it was 1.94 µM; in the experiment with HL-60(TB) leukemia, 3.35 µM; in the experiment on NCI-H522 lung, 4.35 µM; in the experiment on UO-31 renal it was 10.9 µM. Also, the GI50 is 18.3 µM with OVCAR-5 ovarian, 2.95 µM in the experiment with OVCAR-3 ovarian, 1.67 µM with HCT-116 colon and 3.87 µM in the experiment on CCRF-CEM leukemia. Besides, the TGI in the experiment on OVCAR-4 ovarian was more than 100 µM; in the experiment with SNB-75 CNS, 42.4 µM; with SR leukemia, 5.36 µM; with HL-60(TB) leukemia it was 13.1 µM; in the experiment on NCI-H522 lung, 41.7 µM; in the experiment on UO-31 renal, 29.9 µM. In addition, the results for the TGI in the experiment with OVCAR-5 ovarian, in the experiment on HCT-116 colon and with CCRF-CEM leukemia were 40.2 µM, 3.37 µM and more than 100 µM, respectively.
`COc1ccccc1NC(=O)C1=C(C)NC(C)=C(C(=O)Nc2ccccc2OC)C1c1ccccc1OC`: the TGI with OVCAR-4 ovarian was more than 100 µM; in the experiment on SNB-75 CNS, 69 µM; in the experiment with SR leukemia, more than 100 µM; with HL-60(TB) leukemia it was more than 100 µM; with NCI-H522 lung it was more than 100 µM; in the experiment with UO-31 renal, more than 100 µM. For the same compound, the TGI in the experiment with OVCAR-5 ovarian, with OVCAR-3 ovarian, in the experiment with HCT-116 colon and in the experiment on CCRF-CEM leukemia was more than 100 µM in each case.
In the case of `CN(C)CC1CCn2c(c(C3=C(c4cn(C)c5ccccc45)C(=O)NC3=O)c3ccccc32)C1` (centres undefined), the GI50 in the experiment on OVCAR-4 ovarian was 4.32 µM; in the experiment on SNB-75 CNS it was 0.772 µM; with SR leukemia, 4.26 µM; with HL-60(TB) leukemia it was 5.87 µM; with NCI-H522 lung it was 4.07 µM; in the experiment on UO-31 renal it was 2.69 µM. The GI50 in the experiment with OVCAR-5 ovarian was 4.61 µM; in the experiment with OVCAR-3 ovarian, 3.91 µM; in the experiment on HCT-116 colon it was 3.24 µM; with CCRF-CEM leukemia, 6.41 µM. In addition, the TGI in the experiment on OVCAR-4 ovarian is 9.3 µM; in the experiment on SNB-75 CNS it was 5.28 µM; with SR leukemia, 12.7 µM; in the experiment on HL-60(TB) leukemia it was 11.2 µM; in the experiment on NCI-H522 lung, 7.95 µM; in the experiment with UO-31 renal, 5.96 µM. Besides, the TGI with OVCAR-5 ovarian came to 12.8 µM; with OVCAR-3 ovarian, 8.15 µM; with HCT-116 colon, 6.75 µM; in the experiment on CCRF-CEM leukemia, 24.2 µM.
As to `COc1ccc(Nc2ccnc(NCCCNc3ccnc4cc(Cl)ccc34)n2)cc1`, the GI50 with OVCAR-4 ovarian was 1.35 µM; in the experiment on SNB-75 CNS, 0.903 µM; in the experiment with SR leukemia, 0.254 µM; in the experiment with HL-60(TB) leukemia it was 1.59 µM; with NCI-H522 lung it was 1.62 µM; in the experiment on UO-31 renal, 0.879 µM. Moreover, the GI50 with OVCAR-5 ovarian is 1.16 µM; in the experiment on OVCAR-3 ovarian, 1.56 µM; in the experiment on HCT-116 colon, 0.374 µM; in the experiment on CCRF-CEM leukemia, 0.34 µM. For the same compound, the TGI worked out at 6.22 µM with OVCAR-4 ovarian; 2.14 µM with SNB-75 CNS; 0.912 µM in the experiment on SR leukemia; 4.1 µM in the experiment on HL-60(TB) leukemia; 3.67 µM in the experiment with NCI-H522 lung; 2.18 µM with UO-31 renal. In addition, the TGI in the experiment on OVCAR-5 ovarian is 3.73 µM; in the experiment on OVCAR-3 ovarian it was 3.24 µM; with HCT-116 colon, 1.54 µM; in the experiment with CCRF-CEM leukemia it was 1.8 µM.
As for `O=C(O)c1cccc(CC(Br)C(=O)O)c1` (centres undefined), the TGI in the experiment with OVCAR-4 ovarian, in the experiment on SNB-75 CNS, with SR leukemia, in the experiment with HL-60(TB) leukemia, in the experiment on NCI-H522 lung and with UO-31 renal was more than 100 µM each time. The TGI in the experiment on OVCAR-5 ovarian, with OVCAR-3 ovarian, in the experiment with HCT-116 colon and with CCRF-CEM leukemia was more than 100 µM in each case.
